Results as given in patent US20070259874A1, “Phosphodiesterase Inhibitors” (priority 2003, published 2007).

| Compound | melting point [°C] |
| --- | --- |
| CCOc1ccccc1-c1nc(C2(C)CC(c3ccc(OC)c(OC4CCCC4)c3)=NO2)no1 (centres unmarked) [Compound No. 59, 3-[3-(3-Cyclopentyloxy-4-methoxyphenyl)-5-methyl-4,5-dihydro-isoxazol-5-yl]-5-(2-ethoxy-phenyl)-[1,2,4]oxadiazole] | 138.5 to 139 |
| COc1ccc(C2=NOC(C)(c3noc(C4CC4)n3)C2)cc1OC1CCCC1 (centres unmarked) [Compound No. 60, 3-[3-(3-Cyclopentyloxy-4-methoxyphenyl)-5-methyl-4,5-dihydro-isoxazol-5-yl]-5-cyclopropyl-[1,2,4]oxadiazole] | 105 to 106 |
| COc1cccc(-c2nc(C3(C)CC(c4ccc(OC)c(OC5CCCC5)c4)=NO3)no2)c1 (centres unmarked) [Compound No. 74, 3-[3-(3-Cyclopentyloxy-4-methoxyphenyl)-5-methyl-4,5-dihydro-isoxazol-5-yl]-5-(3-methoxy-phenyl)-[1,2,4]oxadiazole] | 121 to 122 |
| COc1ccc(C2=NOC(C)(c3noc(-c4ccccc4Cl)n3)C2)cc1OC1CCCC1 (centres unmarked) [Compound No. 76, 5-(2-Chlorophenyl)-3-[3-(3-cyclopentyloxy-4-methoxyphenyl)-5-methyl-4,5-dihydro-isoxazol-5-yl]-[1,2,4]oxadiazole] | 122 |
| COc1ccc(C2=NOC(C)(c3noc(-c4ccc(Cl)c(Cl)c4)n3)C2)cc1OC1CCCC1 (centres unmarked) [Compound No. 79, 3-[3-(3-Cyclopentyloxy-4-methoxyphenyl)-5-methyl-4,5-dihydro-isoxazol-5-yl]-5-(3,4-dichloro-phenyl)-[1,2,4]oxadiazole] | 113.5 to 114.9 |
